Measurements from the Kinase Knowledgebase extract (Sharma et al. 2016).

Target: MAPK14 (UniProt Q16539)
Test: Inhibition of MAPK14 Kinase Activity

MAPK14, sequence (Q16539 whole entry, looked up): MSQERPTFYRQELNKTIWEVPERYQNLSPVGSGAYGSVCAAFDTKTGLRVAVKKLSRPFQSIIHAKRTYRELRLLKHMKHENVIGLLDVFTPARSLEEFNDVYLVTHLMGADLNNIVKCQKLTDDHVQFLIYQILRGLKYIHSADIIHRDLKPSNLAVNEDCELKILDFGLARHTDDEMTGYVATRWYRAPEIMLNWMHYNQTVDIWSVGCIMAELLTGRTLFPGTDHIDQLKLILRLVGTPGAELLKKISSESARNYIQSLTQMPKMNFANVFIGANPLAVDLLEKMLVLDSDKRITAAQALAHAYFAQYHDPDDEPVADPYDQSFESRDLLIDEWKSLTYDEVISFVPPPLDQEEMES

IC50, < 50 µM:
CCCSc1nccc(-c2c(-c3ccc(F)cc3)ncn2[C@@H](CO)c2ccccc2)n1
CNc1nccc(-c2c(-c3ccc(F)cc3)ncn2[C@@H](CO)c2ccccc2)n1
COc1nccc(-c2c(-c3ccc(F)cc3)ncn2[C@H](CO)c2ccccc2)n1
COc1nccc(-c2c(-c3ccc(F)cc3)ncn2[C@@H](CO)Cc2ccccc2)n1
COc1nccc(-c2c(-c3ccc(F)cc3)ncn2C(C)CO)n1 (stereo unspecified)
CC[C@@H](CO)n1cnc(-c2ccc(F)cc2)c1-c1ccnc(NC)n1
CC[C@@H](CO)n1cnc(-c2ccc(F)cc2)c1-c1ccnc(OC)n1
CCCSc1nccc(-c2c(-c3ccc(F)cc3)ncn2[C@@H](CC)CO)n1
CC[C@H](CO)n1cnc(-c2ccc(F)cc2)c1-c1ccnc(NC)n1
CCCSc1nccc(-c2c(-c3ccc(F)cc3)ncn2C(CO)CO)n1
COc1nccc(-c2c(-c3ccc(F)cc3)ncn2C(CO)CO)n1
CCCSc1nccc(-c2c(-c3ccc(F)cc3)ncn2[C@H](CC)CO)n1
CNc1nccc(-c2c(-c3ccc(F)cc3)ncn2C(C)CO)n1 (stereo unspecified)
CNc1nccc(-c2c(-c3ccc(F)cc3)ncn2[C@H](CO)c2ccccc2)n1
CC[C@H](CO)n1cnc(-c2ccc(F)cc2)c1-c1ccnc(OC)n1
COc1nccc(-c2c(-c3ccc(F)cc3)ncn2[C@@H](CO)c2ccccc2)n1
CCCSc1nccc(-c2c(-c3ccc(F)cc3)ncn2C(C)CN(C)C)n1 (stereo unspecified)
COc1nccc(-c2c(-c3ccc(F)cc3)ncn2C(C)CN(C)C)n1 (stereo unspecified)
C[C@@H](CO)n1cnc(-c2ccc(F)cc2)c1-c1ccncn1
CCCSc1nccc(-c2c(-c3ccc(F)cc3)ncn2[C@H](CO)c2ccccc2)n1
C[C@@H](CO)n1cnc(-c2ccc(F)cc2)c1-c1ccnc(Nc2ccccc2)n1
COc1nccc(-c2c(-c3ccc(F)cc3)ncn2C(C)COc2ccccc2)n1 (stereo unspecified)
CCCSc1nccc(-c2c(-c3ccc(F)cc3)ncn2[C@H](C)CO)n1
COc1nccc(-c2c(-c3ccc(F)cc3)ncn2[C@H](CO)Cc2ccccc2)n1
CCCSc1nccc(-c2c(-c3ccc(F)cc3)ncn2[C@@H](C)CO)n1
CCCSc1nccc(-c2c(-c3ccc(F)cc3)ncn2C(C)CC(=O)OC)n1 (stereo unspecified)
